Key:
[1] = 6 h benchtop (early preanalytical) stability in whole blood and in plasma; assay type: in vitro ADME, human
Procedure: Six independent plasma samples were processed. The reference solutions were 140 µL acetonitrile-water 4:1 (v/v) mixtures spiked as described above. The mixtures and the reference solutions were subsequently diluted with 90 µL water. Internal standard-corrected matrix factors were calculated as the peak area ratios of the analytes and the internal standards in prepared plasma versus those in a neat solution. In the stability studies, the recoveries of IBR and DIB were calculated as the ratio of the concentrations measured after incubation and those measured at the beginning of the study.
The preanalytical stability of IBR and DIB was evaluated by adding 20 µL methanol solutions containing 500 ng/mL IBR and DIB to two 1.0 mL aliquots of blood freshly drawn into phlebotomy tubes containing K3-EDTA. Three samples, 3 mL each, were taken from three healthy volunteers (manuscript authors G.B.K., I.V. and Z.K.). One of the fractions was centrifuged at 3000 rpm and 10 °C for 10 min immediately after spiking the analytes, and plasma was separated. Both spiked whole blood and the separated plasma were kept at ambient temperature for 6 h. […] Fifty microliters was drawn from the supernatant of the whole blood sample as well as from the plasma, and was processed as described in Section 2.2.

[2] = Stability in plasma at −70 °C; assay type: in vitro ADME
[3] = 24 h therapeutic monitoring and noncompartmental pharmacokinetics in chronic lymphocytic leukemia patients receiving IBR; conditions: plasma; for mean DIB/IBR concentration ratio: three patients; for concentration at 0.5 h: 0.5 h postdose; for concentration at 1 h: 1 h postdose; for concentration at 2 h: 2 h postdose; for concentration at 4 h: 4 h postdose
[4] = Patient 1, 420 mg IBR per day, steady state
[5] = Patient 2, 420 mg IBR per day, steady state
[6] = Patient 3, 280 mg IBR per day, steady state
[7] = human, oral, 280 mg/day, Conc., subj=3 (280 mg IBR per day)
[8] = human, oral, 420 mg, Conc., subj=1 (420 mg IBR per day)

recovery at 9.8 ng/mL ([1]; human, plasma (separated from spiked K3-EDTA whole blood), plasma, ambient temperature (25 °C), up to 6 h, all analyses): ≥ 85% | stability ([1]; whole blood and plasma kept at ambient temperature for 6 h): acceptable for clinical use | cases with recoveries lower than 85% (of fifteen analyses) ([1]; whole blood, ambient temperature (25 °C), up to 6 h): one | stability in plasma [2]: 3 month | AUC0–24 [3, 4]: 2347 nmol·L/h | AUMC0–24 [3, 4]: 16,593 nmol × L | AUC0–24 [3, 5]: 2528 nmol·L/h | AUMC0–24 [3, 5]: 11,626 nmol × L | AUC0–24 [3, 6]: 1800 nmol·L/h | AUMC0–24 [3, 6]: 8172 nmol·L | mean DIB/IBR concentration ratio ([3]; at 4 h postdose): 2.36 ± 1.69 | mean DIB/IBR concentration ratio ([3]; at the trough (23–24 h)): 3.34–3.44 | mean DIB/IBR concentration ratio ([3]; between 0.5–2 h postdose): 0.96–1.19 | AUC ([3]; human, oral, 280 mg, AUCALL AUC All, subj=3 (280 mg IBR per day), steady state): 1800 nM·h | AUC(0-inf) ([3]; human, oral, 280 mg, AUCIFO AUC Infinity Obs, subj=3 (280 mg IBR per day), steady state): 1880 nM·h | AUC(0-inf) ([3]; human, oral, 280 mg, AUCIFP AUC Infinity Pred, subj=3 (280 mg IBR per day), steady state): 1880 nM·h | AUC ([3]; human, oral, 280 mg, AUCLST AUC to Last Nonzero Conc, subj=3 (280 mg IBR per day), steady state): 1800 nM·h | Cmax ([3]; human, oral, 280 mg, CMAX Max Conc, subj=3 (280 mg IBR per day), steady state): 0.217 µM | k el ([3]; human, oral, 280 mg, LAMZ Lambda z, subj=3 (280 mg IBR per day), steady state): 3.39e-05 s⁻¹ | half-life ([3]; human, oral, 280 mg, LAMZHL Half-Life Lambda z, subj=3 (280 mg IBR per day), steady state): 5.68 h | MRT last ([3]; human, oral, 280 mg, MRT0–24, Patient 3, 280 mg IBR per day, steady state): 4.54 h | MRT ([3]; human, oral, 280 mg, MRTEVIFO MRT Extravasc Infinity Obs, subj=3 (280 mg IBR per day), steady state): 5.75 h | MRT ([3]; human, oral, 280 mg, MRTEVIFP MRT Extravasc Infinity Pred, subj=3 (280 mg IBR per day), steady state): 5.72 h | MRT ([3]; human, oral, 280 mg, MRTEVLST MRT Extravasc to Last Nonzero Conc, subj=3 (280 mg IBR per day), steady state): 4.54 h | Cmax ([3]; human, oral, 280 mg, cmax, Patient 3, 280 mg IBR per day, steady state): 0.217 µM | k el ([3]; human, oral, 280 mg, ke, Patient 3, 280 mg IBR per day, steady state): 3.39e-05 s⁻¹ | half-life ([3]; human, oral, 280 mg, t1/2, Patient 3, 280 mg IBR per day, steady state): 5.68 h | Tmax ([3]; human, oral, 280 mg, tmax, Patient 3, 280 mg IBR per day, steady state): 2 h | concentration at 24 h ([3]; human, oral, 280 mg/day, CLST Last Nonzero Conc, subj=3 (280 mg IBR per day), 24 h): 0.0101 µM | concentration at 24 h ([3]; human, oral, 280 mg/day, CLSTP Last Nonzero Conc Pred, subj=3 (280 mg IBR per day), 24 h): 0.00984 µM | concentration at 0.5 h [3, 7]: 0.0504 µM | concentration at 1 h [3, 7]: 0.195 µM | concentration at 2 h [3, 7]: 0.217 µM | concentration at 4 h [3, 7]: 0.113 µM | concentration at 23 h ([3]; human, oral, 280 mg/day, Conc., subj=3 (280 mg IBR per day), 23 h postdose): 0.0108 µM | concentration at 24 h ([3]; human, oral, 280 mg/day, Conc., subj=3 (280 mg IBR per day), 24 h postdose): 0.0101 µM | AUC ([3]; human, oral, 420 mg, AUCALL AUC All, subj=1 (420 mg IBR per day), steady state): 2350 nM·h | AUC ([3]; human, oral, 420 mg, AUCALL AUC All, subj=2 (420 mg IBR per day), steady state): 2530 nM·h | AUC(0-inf) ([3]; human, oral, 420 mg, AUCIFO AUC Infinity Obs, subj=1 (420 mg IBR per day), steady state): 2850 nM·h | AUC(0-inf) ([3]; human, oral, 420 mg, AUCIFO AUC Infinity Obs, subj=2 (420 mg IBR per day), steady state): 2630 nM·h | AUC(0-inf) ([3]; human, oral, 420 mg, AUCIFP AUC Infinity Pred, subj=1 (420 mg IBR per day), steady state): 2880 nM·h | AUC(0-inf) ([3]; human, oral, 420 mg, AUCIFP AUC Infinity Pred, subj=2 (420 mg IBR per day), steady state): 2630 nM·h | AUC ([3]; human, oral, 420 mg, AUCLST AUC to Last Nonzero Conc, subj=1 (420 mg IBR per day), steady state): 2350 nM·h | AUC ([3]; human, oral, 420 mg, AUCLST AUC to Last Nonzero Conc, subj=2 (420 mg IBR per day), steady state): 2530 nM·h | concentration at 24 h ([3]; human, oral, 420 mg, CLST Last Nonzero Conc, subj=1 (420 mg IBR per day), 24 h): 0.0346 µM | concentration at 24 h ([3]; human, oral, 420 mg, CLST Last Nonzero Conc, subj=2 (420 mg IBR per day), 24 h): 0.0132 µM | concentration at 24 h ([3]; human, oral, 420 mg, CLSTP Last Nonzero Conc Pred, subj=1 (420 mg IBR per day), 24 h): 0.0365 µM | concentration at 24 h ([3]; human, oral, 420 mg, CLSTP Last Nonzero Conc Pred, subj=2 (420 mg IBR per day), 24 h): 0.013 µM | Cmax ([3]; human, oral, 420 mg, CMAX Max Conc, subj=1 (420 mg IBR per day), steady state): 0.185 µM | Cmax ([3]; human, oral, 420 mg, CMAX Max Conc, subj=2 (420 mg IBR per day), steady state): 0.254 µM | concentration at 0.5 h [3, 8]: 0.0534 µM | concentration at 1 h [3, 8]: 0.139 µM | concentration at 2 h [3, 8]: 0.185 µM | concentration at 4 h [3, 8]: 0.143 µM
Compound: Nc1ncnc2c1c(-c1ccc(Oc3ccccc3)cc1)nn2[C@@H]1CCCN(C(=O)C(O)CO)C1 (stereo partly drawn) [Dihydrodiol Ibrutinib, 1-[(3R)-3-[4-amino-3-(4-phenoxyphenyl)pyrazolo[3,4-d]pyrimidin-1-yl]piperidin-1-yl]-2,3-dihydroxypropan-1-one]
